Test [1] has as its target T1, 5-hydroxytryptamine receptor 2C (Homo sapiens, UniProt P28335).
T1 sequence (P28335 whole entry): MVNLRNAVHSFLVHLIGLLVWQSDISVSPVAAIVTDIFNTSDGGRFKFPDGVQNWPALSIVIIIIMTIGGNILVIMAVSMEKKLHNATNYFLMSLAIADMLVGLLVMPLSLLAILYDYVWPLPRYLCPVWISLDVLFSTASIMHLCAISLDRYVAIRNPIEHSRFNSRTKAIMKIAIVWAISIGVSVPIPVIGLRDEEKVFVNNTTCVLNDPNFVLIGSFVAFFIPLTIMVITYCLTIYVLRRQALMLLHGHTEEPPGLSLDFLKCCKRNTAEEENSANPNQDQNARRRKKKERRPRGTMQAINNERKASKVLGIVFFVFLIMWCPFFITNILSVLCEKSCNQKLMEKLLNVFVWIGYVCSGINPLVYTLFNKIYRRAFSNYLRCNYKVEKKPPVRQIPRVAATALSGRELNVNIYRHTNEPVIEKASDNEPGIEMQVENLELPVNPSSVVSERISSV
Nature of the test: Agonist activity at human 5HT2C receptor stably expressed in Flp-In-T-REx-293 cells assessed as increase in Gq-mediated calcium flux by Fluo-4 direct dye based FLIPR Tetra assay. The class given is functional, cell-based. Conditions: read-out: EC50.

The target of test [2] is T2, Alpha-1D adrenergic receptor (Homo sapiens) (UniProt P25100).
T2 sequence (whole entry): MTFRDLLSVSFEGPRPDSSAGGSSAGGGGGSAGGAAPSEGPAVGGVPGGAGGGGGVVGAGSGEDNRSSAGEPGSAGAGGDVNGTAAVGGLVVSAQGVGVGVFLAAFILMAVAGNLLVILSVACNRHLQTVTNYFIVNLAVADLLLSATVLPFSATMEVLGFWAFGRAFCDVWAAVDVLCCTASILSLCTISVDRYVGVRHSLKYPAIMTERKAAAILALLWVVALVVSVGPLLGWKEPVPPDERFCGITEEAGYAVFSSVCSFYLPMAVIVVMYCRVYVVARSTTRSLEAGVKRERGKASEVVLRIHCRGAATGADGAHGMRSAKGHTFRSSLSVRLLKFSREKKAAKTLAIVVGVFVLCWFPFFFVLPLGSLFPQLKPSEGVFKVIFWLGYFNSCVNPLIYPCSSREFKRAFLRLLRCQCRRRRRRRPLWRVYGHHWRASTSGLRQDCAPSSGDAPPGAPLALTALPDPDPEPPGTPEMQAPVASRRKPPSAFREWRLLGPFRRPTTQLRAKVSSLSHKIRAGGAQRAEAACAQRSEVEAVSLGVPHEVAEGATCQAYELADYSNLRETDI
The test is described as follows: Inhibition of alpha1D receptor (unknown origin). The note with it: concentration not given here.

The target of test [3] is T3, Alpha-1B adrenergic receptor (Homo sapiens) (UniProt P35368).
T3 sequence (whole entry): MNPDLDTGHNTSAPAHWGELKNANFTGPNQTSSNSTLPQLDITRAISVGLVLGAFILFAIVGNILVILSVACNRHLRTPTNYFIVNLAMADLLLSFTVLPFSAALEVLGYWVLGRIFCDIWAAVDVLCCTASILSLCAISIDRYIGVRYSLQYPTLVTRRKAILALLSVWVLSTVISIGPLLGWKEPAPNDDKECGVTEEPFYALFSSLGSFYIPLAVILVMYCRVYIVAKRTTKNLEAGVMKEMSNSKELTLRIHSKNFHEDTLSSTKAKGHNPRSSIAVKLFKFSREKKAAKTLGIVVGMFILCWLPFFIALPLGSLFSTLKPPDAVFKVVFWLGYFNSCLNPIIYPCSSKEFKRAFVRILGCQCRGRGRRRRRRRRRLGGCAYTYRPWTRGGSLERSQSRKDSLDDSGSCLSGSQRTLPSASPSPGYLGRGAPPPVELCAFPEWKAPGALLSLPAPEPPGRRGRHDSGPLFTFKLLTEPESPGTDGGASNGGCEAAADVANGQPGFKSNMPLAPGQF
The test is described as follows: Inhibition of alpha1B receptor (unknown origin). The note with it: concentration not given here.

Test [4] has as its target Muscarinic acetylcholine receptor M3 (Homo sapiens) (UniProt P20309). Nature of the test: Inhibition of M3 receptor (unknown origin). Conditions: concentration not given here.
For test [5], the target named is Sodium-dependent noradrenaline transporter (Homo sapiens) (UniProt P23975). The test is described as follows: Inhibition of NET receptor (unknown origin). The note with it: concentration not given here.
The target of test [6] is 5-hydroxytryptamine receptor 2A (Homo sapiens, UniProt P28223). Nature of the test: Binding affinity to 5HT2A receptor (unknown origin) assessed as inhibition constant.
Test [7] concerns the target Beta-2 adrenergic receptor (Homo sapiens) (UniProt P07550). Nature of the test: Inhibition of beta 2 receptor (unknown origin). Conditions: concentration not given here.
The target of test [8] is 5-hydroxytryptamine receptor 6 (Homo sapiens, UniProt P50406). The test is described as follows: Binding affinity to 5HT6 receptor (unknown origin) assessed as inhibition constant.
In test [9] the target is Kappa-type opioid receptor (Homo sapiens) (UniProt P41145). The test is described as follows: Inhibition of KOR receptor (unknown origin). The note with it: concentration not given here.
The target in test [10] is Sodium-dependent serotonin transporter (Homo sapiens, UniProt P31645). Nature of the test: Inhibition of SERT receptor (unknown origin). Conditions: concentration not given here.
The species named for another test is Homo sapiens. Nature of the test: Inhibition of BZP receptor (unknown origin). The note with it: concentration not given here.
In test [11] the target is T4, Alpha-2B adrenergic receptor (Homo sapiens) (UniProt P18089).
T4 sequence (whole entry): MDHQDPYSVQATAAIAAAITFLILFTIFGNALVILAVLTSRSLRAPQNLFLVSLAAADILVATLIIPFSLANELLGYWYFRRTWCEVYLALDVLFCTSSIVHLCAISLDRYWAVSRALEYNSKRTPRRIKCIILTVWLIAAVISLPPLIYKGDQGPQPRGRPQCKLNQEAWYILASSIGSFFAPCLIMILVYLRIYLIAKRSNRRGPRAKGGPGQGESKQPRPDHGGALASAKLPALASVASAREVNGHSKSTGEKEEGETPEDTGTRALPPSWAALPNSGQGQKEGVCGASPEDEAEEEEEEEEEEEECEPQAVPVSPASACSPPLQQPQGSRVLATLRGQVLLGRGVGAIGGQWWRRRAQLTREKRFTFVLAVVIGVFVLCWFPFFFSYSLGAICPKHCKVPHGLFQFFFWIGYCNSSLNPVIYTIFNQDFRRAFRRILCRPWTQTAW
Nature of the test: Inhibition of alpha2B receptor (unknown origin). The note with it: concentration not given here.

The target of test [12] is Sigma non-opioid intracellular receptor 1 (Homo sapiens, UniProt Q99720). The test is described as follows: Binding affinity to sigma 1 receptor (unknown origin) assessed as inhibition constant.
In test [13] the target is D(1A) dopamine receptor (Homo sapiens) (UniProt P21728). Nature of the test: Inhibition of D1 receptor (unknown origin). The note with it: concentration not given here.

Each structure is given as a SMILES string.

Sequence of Beta-2 adrenergic receptor (Homo sapiens) (P07550 whole entry, looked up): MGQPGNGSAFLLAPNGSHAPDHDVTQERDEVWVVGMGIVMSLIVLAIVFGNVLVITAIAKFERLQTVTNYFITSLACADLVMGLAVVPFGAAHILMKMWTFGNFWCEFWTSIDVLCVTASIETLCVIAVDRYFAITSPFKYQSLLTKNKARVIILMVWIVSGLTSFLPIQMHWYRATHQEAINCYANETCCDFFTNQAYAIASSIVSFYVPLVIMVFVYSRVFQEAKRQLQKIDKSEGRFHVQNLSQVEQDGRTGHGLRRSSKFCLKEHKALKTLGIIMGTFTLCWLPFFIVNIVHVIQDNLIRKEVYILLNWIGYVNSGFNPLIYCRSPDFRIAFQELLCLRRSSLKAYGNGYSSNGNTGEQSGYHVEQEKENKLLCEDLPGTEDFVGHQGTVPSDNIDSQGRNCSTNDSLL
Sequence of Sigma non-opioid intracellular receptor 1 (Q99720 whole entry): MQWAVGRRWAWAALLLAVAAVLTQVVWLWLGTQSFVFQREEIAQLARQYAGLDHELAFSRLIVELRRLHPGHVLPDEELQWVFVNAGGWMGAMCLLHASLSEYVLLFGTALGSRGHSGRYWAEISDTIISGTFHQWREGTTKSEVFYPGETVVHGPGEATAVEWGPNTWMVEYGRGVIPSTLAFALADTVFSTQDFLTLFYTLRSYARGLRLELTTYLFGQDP
Sequence of Sodium-dependent serotonin transporter (P31645 whole entry, looked up): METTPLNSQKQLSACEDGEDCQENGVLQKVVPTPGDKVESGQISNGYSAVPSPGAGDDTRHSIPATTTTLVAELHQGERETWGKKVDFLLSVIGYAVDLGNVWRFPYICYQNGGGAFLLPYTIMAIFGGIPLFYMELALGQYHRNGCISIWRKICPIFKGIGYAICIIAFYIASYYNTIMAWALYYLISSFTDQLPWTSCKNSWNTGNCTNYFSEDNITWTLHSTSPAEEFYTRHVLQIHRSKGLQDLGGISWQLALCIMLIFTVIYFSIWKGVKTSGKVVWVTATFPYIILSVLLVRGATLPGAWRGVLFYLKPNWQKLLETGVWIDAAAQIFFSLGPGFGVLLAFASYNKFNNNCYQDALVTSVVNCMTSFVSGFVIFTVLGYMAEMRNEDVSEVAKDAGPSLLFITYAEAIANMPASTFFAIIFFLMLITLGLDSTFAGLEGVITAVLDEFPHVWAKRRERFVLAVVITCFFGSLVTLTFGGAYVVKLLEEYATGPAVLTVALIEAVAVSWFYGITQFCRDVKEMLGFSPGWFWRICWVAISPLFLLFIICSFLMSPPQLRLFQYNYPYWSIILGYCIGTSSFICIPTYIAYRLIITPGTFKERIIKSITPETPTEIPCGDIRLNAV
Sequence of Muscarinic acetylcholine receptor M3 (Homo sapiens) (P20309 whole entry, looked up): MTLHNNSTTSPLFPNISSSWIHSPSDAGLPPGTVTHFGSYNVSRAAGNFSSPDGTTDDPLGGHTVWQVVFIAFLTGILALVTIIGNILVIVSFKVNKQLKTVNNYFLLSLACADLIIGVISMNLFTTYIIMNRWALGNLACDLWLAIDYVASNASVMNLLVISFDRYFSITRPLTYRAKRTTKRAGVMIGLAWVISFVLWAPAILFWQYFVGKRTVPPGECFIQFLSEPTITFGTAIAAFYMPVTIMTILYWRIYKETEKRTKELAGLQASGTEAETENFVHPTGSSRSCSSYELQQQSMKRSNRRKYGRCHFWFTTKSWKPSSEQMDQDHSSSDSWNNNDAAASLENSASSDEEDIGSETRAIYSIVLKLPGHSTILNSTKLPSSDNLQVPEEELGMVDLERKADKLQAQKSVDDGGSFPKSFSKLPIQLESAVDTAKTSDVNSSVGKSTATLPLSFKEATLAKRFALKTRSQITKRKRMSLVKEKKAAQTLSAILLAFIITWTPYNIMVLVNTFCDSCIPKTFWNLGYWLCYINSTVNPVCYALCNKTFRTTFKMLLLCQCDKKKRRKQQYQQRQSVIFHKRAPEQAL
Sequence of Kappa-type opioid receptor (Homo sapiens) (P41145 whole entry): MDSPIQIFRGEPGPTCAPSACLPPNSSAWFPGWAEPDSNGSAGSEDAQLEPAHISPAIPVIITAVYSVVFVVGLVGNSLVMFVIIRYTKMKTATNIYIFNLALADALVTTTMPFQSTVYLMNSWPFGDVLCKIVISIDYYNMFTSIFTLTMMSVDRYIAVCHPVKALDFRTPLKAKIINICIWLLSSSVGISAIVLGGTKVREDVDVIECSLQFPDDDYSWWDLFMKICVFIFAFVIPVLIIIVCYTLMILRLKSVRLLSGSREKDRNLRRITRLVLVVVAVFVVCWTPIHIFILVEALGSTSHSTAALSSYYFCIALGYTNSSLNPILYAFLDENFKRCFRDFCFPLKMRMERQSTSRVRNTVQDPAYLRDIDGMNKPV
Sequence of D(1A) dopamine receptor (Homo sapiens) (P21728 whole entry): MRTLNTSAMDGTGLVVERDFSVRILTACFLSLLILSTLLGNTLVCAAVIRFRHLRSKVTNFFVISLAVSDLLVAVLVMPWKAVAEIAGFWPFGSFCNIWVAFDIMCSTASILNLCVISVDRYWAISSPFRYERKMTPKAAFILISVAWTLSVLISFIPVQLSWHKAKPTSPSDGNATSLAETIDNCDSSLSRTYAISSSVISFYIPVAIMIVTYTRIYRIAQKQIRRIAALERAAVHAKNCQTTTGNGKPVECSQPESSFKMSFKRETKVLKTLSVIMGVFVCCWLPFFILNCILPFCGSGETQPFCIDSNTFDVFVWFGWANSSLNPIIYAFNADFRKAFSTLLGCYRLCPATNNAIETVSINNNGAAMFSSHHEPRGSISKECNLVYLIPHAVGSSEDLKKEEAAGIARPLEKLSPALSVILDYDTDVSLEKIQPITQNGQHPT
Sequence of Sodium-dependent noradrenaline transporter (Homo sapiens) (P23975 whole entry): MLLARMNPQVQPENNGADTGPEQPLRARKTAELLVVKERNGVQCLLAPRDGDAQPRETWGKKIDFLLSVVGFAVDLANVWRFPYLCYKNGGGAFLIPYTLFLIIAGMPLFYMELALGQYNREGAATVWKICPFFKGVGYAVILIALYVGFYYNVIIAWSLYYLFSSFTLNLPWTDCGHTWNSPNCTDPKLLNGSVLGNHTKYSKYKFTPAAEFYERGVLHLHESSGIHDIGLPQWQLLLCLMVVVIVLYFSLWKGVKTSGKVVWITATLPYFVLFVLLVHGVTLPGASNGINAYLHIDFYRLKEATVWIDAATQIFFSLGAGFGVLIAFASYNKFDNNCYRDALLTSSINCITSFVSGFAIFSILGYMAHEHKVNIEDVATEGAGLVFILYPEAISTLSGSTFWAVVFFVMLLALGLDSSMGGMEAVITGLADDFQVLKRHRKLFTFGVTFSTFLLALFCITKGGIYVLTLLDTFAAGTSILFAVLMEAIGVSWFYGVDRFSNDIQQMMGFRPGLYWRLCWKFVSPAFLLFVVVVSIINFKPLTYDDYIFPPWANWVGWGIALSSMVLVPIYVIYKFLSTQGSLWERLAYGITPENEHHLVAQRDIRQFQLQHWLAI
Sequence of 5-hydroxytryptamine receptor 6 (P50406 whole entry): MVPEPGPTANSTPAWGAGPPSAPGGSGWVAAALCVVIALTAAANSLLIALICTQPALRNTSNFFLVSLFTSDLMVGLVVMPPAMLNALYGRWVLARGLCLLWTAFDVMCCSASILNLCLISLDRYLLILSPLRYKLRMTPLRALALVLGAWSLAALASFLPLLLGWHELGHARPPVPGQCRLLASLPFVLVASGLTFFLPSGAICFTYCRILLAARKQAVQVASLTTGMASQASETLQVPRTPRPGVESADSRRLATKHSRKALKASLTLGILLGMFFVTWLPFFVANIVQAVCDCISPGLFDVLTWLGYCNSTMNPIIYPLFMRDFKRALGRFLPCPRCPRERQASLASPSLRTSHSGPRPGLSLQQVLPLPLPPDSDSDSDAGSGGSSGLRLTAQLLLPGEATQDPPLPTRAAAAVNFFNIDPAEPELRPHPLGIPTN
Sequence of 5-hydroxytryptamine receptor 2A (P28223 whole entry): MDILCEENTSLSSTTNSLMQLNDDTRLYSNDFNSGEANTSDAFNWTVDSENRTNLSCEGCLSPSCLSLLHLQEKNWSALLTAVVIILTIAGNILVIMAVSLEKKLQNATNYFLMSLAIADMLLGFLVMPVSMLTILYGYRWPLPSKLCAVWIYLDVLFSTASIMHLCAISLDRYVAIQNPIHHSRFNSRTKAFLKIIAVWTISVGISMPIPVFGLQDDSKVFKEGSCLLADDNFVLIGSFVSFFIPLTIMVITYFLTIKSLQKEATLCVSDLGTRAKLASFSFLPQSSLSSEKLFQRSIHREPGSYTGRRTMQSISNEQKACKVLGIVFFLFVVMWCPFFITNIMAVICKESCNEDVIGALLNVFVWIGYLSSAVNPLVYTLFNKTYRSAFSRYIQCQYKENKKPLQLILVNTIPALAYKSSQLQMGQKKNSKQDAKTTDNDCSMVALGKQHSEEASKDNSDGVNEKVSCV

With `COc1ccc(C2NCCc3c2[nH]c2ccc(Cl)cc32)c(O)c1` (centres undefined), the EC50 in test [1] is 8.9 nM. Further, the inhibition in test [2], in test [3], in test [4], in test [5], in [7] and in test [9] was less than 50% throughout. Further, the inhibition (in test [10]; in the test filed under Homo sapiens; in [11]; in [13]) was less than 50% throughout. In addition, the inhibition constant (Ki) in test [6] amounted to 225 nM; in test [8], 47.7 nM; in test [12], 1030 nM.

Turning to `COc1cc(OC)c(C2NCCc3c2[nH]c2ccc(Cl)cc32)cc1OC` (centres undefined), the 50% effective concentration (EC50) in test [1] was found to be 0.5 nM. Besides, the inhibition in test [2], in [3], in test [4], in test [5], in test [7] and in [9] was less than 50% each time. Also, the inhibition (in test [10]; in the test listed under Homo sapiens; in test [11]; in [13]) was less than 50% each time. Moreover, the Ki in test [6] is 113 nM; in test [8], 29 nM; in test [12] it was 1490 nM.

Regarding `COc1ccc(C2NCCc3c2[nH]c2ccc(F)cc32)c(O)c1` (centres undefined), the EC50 in [1] stood at 1.02 nM. The inhibition in [2], in test [3], in test [4], in [5], in test [7] and in test [9] was less than 50% throughout. Besides, the inhibition (in the test filed under Homo sapiens; in test [11]; in [13]) was less than 50% each time. The Ki in test [6] was 250 nM; in test [8], 68.8 nM.

For the compound `COc1cc(OC)c(C2NCCc3c2[nH]c2ccc(F)cc32)cc1OC` (centres undefined), the concentration giving a half-maximal response (EC50) in [1] worked out at 20 nM. The inhibition in test [2], in test [3], in [4], in test [5], in test [7] and in [9] was less than 50% throughout. Besides, the inhibition (in test [10]; in the test listed under Homo sapiens; in [11]; in test [13]) was less than 50% each time. Further, the Ki is 2440 nM in [6], 530 nM in [8] and 760 nM in [12].

Values taken from ChEMBL document CHEMBL5131517 (ACS Med Chem Lett, 2022).
